Results: EP0550016A1, “Novel quinolone carboxylic acid derivatives and processes for preparing same” (KOREA RESEARCH INSTITUTE OF CHEMICAL TECHNOLOGY, priority 1991, dated 1993)
Values after ≈ are worked out from the molar mass of the structure shown.

Columns and labels:
Experiment in all cases: In vitro anti-bacterial activity test (MIC, two-fold dilution method) against the standard strains
Format in all cases: cell-based
[1] = tested on: Streptococcus pyogenes 308 A; settings: Table 1 strain 1: Streptococcus pyogenes 308 A
[2] = tested on: Streptococcus pyogenes 77 A; settings: Table 1 strain 2: Streptococcus pyogenes 77 A; read-out: MIC
[3] = tested on: Streptococcus faecium MD 8b; settings: Enterococcus faecium, MD8B; Table 1 strain 3: Streptococcus faecium MD 8b; read-out: MIC
[4] = tested on: Staphylococcus aureus SG 511; settings: SG511; Table 1 strain 4: Staphylococcus aureus SG 511
[5] = tested on: Staphylococcus aureus 285; settings: Table 1 strain 5: Staphylococcus aureus 285; read-out: MIC
[6] = tested on: Staphylococcus aureus 503; settings: Table 1 strain 6: Staphylococcus aureus 503; read-out: MIC
Escherichia coli DC 0 [7] = settings: DC0; Table 1 strain 7: Escherichia coli DC 0
Escherichia coli DC 0 [8] = settings: DC0; Table 1 strain 8: Escherichia coli DC 0
Escherichia coli DC 2 = settings: DC2; Table 1 strain 9: Escherichia coli DC 2; read-out: MIC
Escherichia coli OTEM = settings: Table 1 strain 10: Escherichia coli OTEM
Escherichia coli 1507 E = settings: Table 1 strain 11: Escherichia coli 1507 E
[9] = tested on: Pseudomonas aeruginosa 9027; settings: Table 1 strain 12: Pseudomonas aeruginosa 9027
[10] = tested on: Pseudomonas aeruginosa 1592 E; settings: Table 1 strain 13: Pseudomonas aeruginosa 1592 E
[11] = tested on: Pseudomonas aeruginosa 1771; settings: Table 1 strain 14: Pseudomonas aeruginosa 1771
[12] = tested on: Pseudomonas aeruginosa 1771 M; settings: Table 1 strain 15: Pseudomonas aeruginosa 1771 M
Salmonella typhimurium = settings: Salmonella enterica; Table 1 strain 16: Salmonella typhimurium
[13] = tested on: Klebsiella aerogenes 1082 E; settings: Table 1 strain 17: Klebsiella aerogenes 1082 E
[14] = tested on: Klebsiella aerogenes 1522 E; settings: Table 1 strain 18: Klebsiella aerogenes 1522 E
[15] = tested on: Enterobacter cloacae P 99; settings: P99; Table 1 strain 19: Enterobacter cloacae P 99
[16] = tested on: Enterobacter cloacae 1321 E; settings: Table 1 strain 20: Enterobacter cloacae 1321 E

Compound	MIC [1]	MIC [2]	MIC [3]	MIC [4]	MIC [5]	MIC [6]	MIC (Escherichia coli DC 0 [7])	MIC (Escherichia coli DC 0 [8])	MIC (Escherichia coli DC 2)	MIC (Escherichia coli OTEM)	MIC (Escherichia coli 1507 E)	MIC [9]	MIC [10]	MIC [11]	MIC [12]	MIC (Salmonella typhimurium)	MIC [13]	MIC [14]	MIC [15]	MIC [16]
CNC1CC12CCN(c1c(F)c(N)c3c(=O)c(C(=O)O)cn(C4CC4)c3c1F)C2 (stereo not shown) [Example 12, 7-(1-methylamino-5-azaspiro[2,4]heptane-5-yl)-1-cyclopropyl-5-amino-6,8-difluoro-1,4-dihydro-4-oxoquinoline-3-carboxylic acid]	0.195 µg/mL (≈ 0.482 µM)	0.195 µg/mL (≈ 0.482 µM)	0.195 µg/mL (≈ 0.482 µM)	0.025 µg/mL (≈ 0.0618 µM)	0.025 µg/mL (≈ 0.0618 µM)	0.025 µg/mL (≈ 0.0618 µM)	0.025 µg/mL (≈ 0.0618 µM)	0.391 µg/mL (≈ 0.967 µM)	0.195 µg/mL (≈ 0.482 µM)	0.049 µg/mL (≈ 0.121 µM)	0.049 µg/mL (≈ 0.121 µM)	3.12 µg/mL (≈ 7.73 µM)	3.12 µg/mL (≈ 7.73 µM)	1.56 µg/mL (≈ 3.86 µM)	0.391 µg/mL (≈ 0.967 µM)	0.049 µg/mL (≈ 0.121 µM)	< 0.002 µg/mL	0.098 µg/mL (≈ 0.242 µM)	0.049 µg/mL (≈ 0.121 µM)	0.025 µg/mL (≈ 0.0618 µM)
C[C@H]1COc2c(N3CCC4(CC4C(=O)O)C3)c(F)cc3c(=O)c(C(=O)O)cn1c23 (stereo partly shown) [Example 14]	3.12 µg/mL (≈ 7.77 µM)	1.56 µg/mL (≈ 3.88 µM)	1.56 µg/mL (≈ 3.88 µM)	0.098 µg/mL (≈ 0.244 µM)	0.098 µg/mL (≈ 0.244 µM)	0.098 µg/mL (≈ 0.244 µM)	0.195 µg/mL (≈ 0.485 µM)	6.25 µg/mL (≈ 15.5 µM)	0.391 µg/mL (≈ 0.972 µM)	0.391 µg/mL (≈ 0.972 µM)	0.781 µg/mL (≈ 1.94 µM)	12.5 µg/mL (≈ 31.1 µM)	6.25 µg/mL (≈ 15.5 µM)	12.5 µg/mL (≈ 31.1 µM)	1.56 µg/mL (≈ 3.88 µM)	0.781 µg/mL (≈ 1.94 µM)	0.098 µg/mL (≈ 0.244 µM)	1.56 µg/mL (≈ 3.88 µM)	0.391 µg/mL (≈ 0.972 µM)	0.195 µg/mL (≈ 0.485 µM)
NCC1CC12CCN(c1c(F)cc3c(=O)c(C(=O)O)cn(C4CC4)c3c1F)C2 (stereo not shown) [Example 15]	0.781 µg/mL (≈ 2.01 µM)	0.195 µg/mL (≈ 0.501 µM)	0.391 µg/mL (≈ 1 µM)	0.098 µg/mL (≈ 0.252 µM)	0.195 µg/mL (≈ 0.501 µM)	0.195 µg/mL (≈ 0.501 µM)	0.049 µg/mL (≈ 0.126 µM)	0.781 µg/mL (≈ 2.01 µM)	0.098 µg/mL (≈ 0.252 µM)	0.098 µg/mL (≈ 0.252 µM)	0.098 µg/mL (≈ 0.252 µM)	1.56 µg/mL (≈ 4.01 µM)	1.56 µg/mL (≈ 4.01 µM)	1.56 µg/mL (≈ 4.01 µM)	0.391 µg/mL (≈ 1 µM)	0.098 µg/mL (≈ 0.252 µM)	0.025 µg/mL (≈ 0.0642 µM)	0.195 µg/mL (≈ 0.501 µM)	0.195 µg/mL (≈ 0.501 µM)	0.049 µg/mL (≈ 0.126 µM)
NC1CC12CCCN(c1c(F)cc3c(=O)c(C(=O)O)cn(C4CC4)c3c1F)C2 (stereo not shown) [Example 16, 7-(1-amino-5-azaspiro[2,5]octane-5-yl)-1-cyclopropyl-6,8-difluoro-1,4-dihydro-4-oxoquinoline-3-carboxylic acid]	0.781 µg/mL (≈ 2.01 µM)	0.391 µg/mL (≈ 1 µM)	0.391 µg/mL (≈ 1 µM)	0.098 µg/mL (≈ 0.252 µM)	0.098 µg/mL (≈ 0.252 µM)	0.098 µg/mL (≈ 0.252 µM)	0.049 µg/mL (≈ 0.126 µM)	1.56 µg/mL (≈ 4.01 µM)	0.195 µg/mL (≈ 0.501 µM)	0.098 µg/mL (≈ 0.252 µM)	0.098 µg/mL (≈ 0.252 µM)	6.25 µg/mL (≈ 16.1 µM)	3.12 µg/mL (≈ 8.03 µM)	3.12 µg/mL (≈ 8.03 µM)	0.781 µg/mL (≈ 2.01 µM)	0.049 µg/mL (≈ 0.126 µM)	0.013 µg/mL (≈ 0.0334 µM)	0.098 µg/mL (≈ 0.252 µM)	0.049 µg/mL (≈ 0.126 µM)	0.049 µg/mL (≈ 0.126 µM)
COc1c(N2CCC3(CC3N)C2)c(F)cc2c(=O)c(C(=O)O)cn(C3CC3)c12 (stereo not shown) [Example 19, 7-(1-amino-5-azaspiro[2,4]heptane-5-yl)-1-cyclopropyl-8-methoxy-6-fluoro-1,4-dihydro-4-oxoquinoline-3-carboxylic acid]	0.195 µg/mL (≈ 0.503 µM)	0.098 µg/mL (≈ 0.253 µM)	0.098 µg/mL (≈ 0.253 µM)	0.025 µg/mL (≈ 0.0645 µM)	0.049 µg/mL (≈ 0.126 µM)	0.025 µg/mL (≈ 0.0645 µM)	0.025 µg/mL (≈ 0.0645 µM)	0.391 µg/mL (≈ 1.01 µM)	0.049 µg/mL (≈ 0.126 µM)	0.049 µg/mL (≈ 0.126 µM)	0.049 µg/mL (≈ 0.126 µM)	1.56 µg/mL (≈ 4.03 µM)	1.56 µg/mL (≈ 4.03 µM)	1.56 µg/mL (≈ 4.03 µM)	0.391 µg/mL (≈ 1.01 µM)	0.049 µg/mL (≈ 0.126 µM)	0.007 µg/mL (≈ 0.0181 µM)	0.098 µg/mL (≈ 0.253 µM)	0.049 µg/mL (≈ 0.126 µM)	0.025 µg/mL (≈ 0.0645 µM)
